The values below come from PMC5719408, “Multivalent cross-linking of actin filaments and microtubules through the microtubule-associated protein Tau” (Nature Communications, 2017).

Assay [1] has as its system F-actin. Description: 2D 1H-15N HSQC NMR signal attenuation of Tau by F-actin. In kind it is binding, human. The following applies: Tau/F-actin molar ratio 1:1.5; compared with non-phosphorylated Tau. The source says:
In order to identify residues in Tau that bind to F-actin, we used NMR spectroscopy. […] According to the resonance assignment of Tau[27], cross-peaks from residues such as S262, N265, and T319 were strongly attenuated. Other residues including T175 and T217 were less affected, and S46 and S64 were not perturbed. Figure 1f highlights the sequence specific intensity ratio of all non-overlapping cross-peaks of Tau in the presence and absence of F-actin. […] In contrast, residues, which are bound to F-actin, should have low (I bound/I free) values, because their resonances would—due to the high molecular weight of the complex—be attenuated. […] Consistent with this hypothesis, the cross-peaks of these residues were attenuated by F-actin also at higher ionic strength (Supplementary Fig. 3).
The sample was then dialyzed against General Actin Buffer (GAB; 5 mM TrisHCl pH 8.0, 0.2 mM CaCl2, 0.2 mM ATP, 0.5 mM DTT) or NMR buffer (50 mM NaH2PO4/Na2HPO4 pH 6.8, 10 mM NaCl, 1 mM DTT, 10% (v/v) D2O) to be used for electron microscopy or NMR experiments, respectively. In case of actin, lyophilized actin was reconstituted to 10 mg ml^−1 by adding 100 μl of distilled water to be in the following buffer: GAB with 5% (w/v) sucrose and 1% (w/v) dextran. […]

Assay [2] concerns F-actin. Description: Protein co-sedimentation / actin bundling (differential centrifugation, SDS gel). In kind it is biochemical, human. Conditions: co-sedimentation; F-actin with Tau (1:1) or Tau peptides (1:10; Tau(254–268) 1:30), room temperature 30 min. The procedure:
The ability of Tau to bundle F-actin was studied using electron microscopy (EM). […] Next, Tau/F-actin co-sedimentation was performed. The same sample, which was used for EM, was exposed to two sequential steps of centrifugation, in which single-actin filaments and actin bundles were collected separately. Subsequently, aliquots from supernatant (SN), filament (PF), and bundle (PB) fractions were loaded in a 4–20% gradient gel (Fig. 1c).
(§1) The sample was then dialyzed against General Actin Buffer (GAB; 5 mM TrisHCl pH 8.0, 0.2 mM CaCl2, 0.2 mM ATP, 0.5 mM DTT) or NMR buffer (50 mM NaH2PO4/Na2HPO4 pH 6.8, 10 mM NaCl, 1 mM DTT, 10% (v/v) D2O) to be used for electron microscopy or NMR experiments, respectively. In case of actin, lyophilized actin was reconstituted to 10 mg ml^−1 by adding 100 μl of distilled water to be in the following buffer: GAB with 5% (w/v) sucrose and 1% (w/v) dextran. Subsequently, the sample was spun at 18,400 × g for 15 min, the supernatant was kept, and actin was polymerized by incubating 0.4 mg ml^−1 G-actin in GAB and supplemented with polymerization buffer (1/10th the volume; 100 mM Tris HCl pH 7.5, 20 mM MgCl2, 500 mM KCl, 10 mM ATP) for 1 h at room temperature. Afterwards, the sample was centrifuged at 100,000 × g during 1 h at 4 °C. Filaments were collected at the bottom of the ultracentrifuge tube. The pellet was then resuspended in GAB or NMR Buffer as required.
Mixtures of F-actin with Tau (1:1) or Tau peptides (1:10 molar ratio) were incubated at room temperature for 30 min. In case of the shorter peptide Tau(254–268), a 1:30 ratio was used. Centrifugation was performed in two steps. First, a spin rate of 5000 × g was used during 15 min to collect bundles of F-actin (PB) at the bottom of the tube. Secondly, the remaining sample was centrifuged at 100,000 × g during 1 h collecting actin filaments (PF). The final supernatant (SN) was also kept for later usage. Pellets were resuspended in 80 μl of GAB. A volume of 25 μl of sample were taken for EM while the remaining 55 μl were loaded in a 4–20% gradient SDS gel, which was colored with […] and denatured with SDS and heat.

Assay [3] concerns F-actin. Briefly: Transfer NOE (2D NOESY) of Tau peptides with F-actin. It is filed as binding, human. Conditions: 27 μM F-actin, 800 μM peptide, NMR buffer pH 6.8 with 0.2 mM ATP and 0.2 mM CaCl2, 278 K.
Text: Instead, short hydrophobic Tau segments, which are separated from each other by flexible residues, bind dynamically to actin’s hydrophobic pocket (Fig. 2). […] NMR Nuclear overhauser effect (NOE) measurements that are sensitive for three-dimensional structure were subsequently performed. […] This approach is called transfer NOE and has been widely used to determine the structure of small ligands in complex with high molecular weight binding partners.
Two-dimensional NOESY experiments with five different mixing times ranging from 50 up to 250 ms were recorded for Tau(254–290) in the presence of F-actin. […] The NOE peaks, which were observed only in the presence of F-actin, provide experimental restraints for the structure of Tau(254–290) in complex with F-actin.
as §1
NMR spectra were acquired on Bruker Avance800 and 900 MHz NMR spectrometers at 278 K to reduce solvent exchange. 2D ^1H-^15N HSQC spectra consisted of 64 scans, spectral windows of 12 ppm in the proton and 25 ppm in the nitrogen dimension. 2D NOESY experiments were acquired using 88 scans, 12 ppm spectral width and a time domain of 512 and 2048 points in the first and second dimension, respectively. To generate buildup curves, mixing times of 50, 80, 100, 150, and 250 ms were used.
For NOESY experiments, 27 μM of F-actin were mixed with 800 μM of Tau peptide in NMR buffer supplemented with 0.2 mM ATP and 0.2 mM CaCl2. A reference experiment was performed in similar conditions only with 800 μM peptide. For resonance assignment, a 2D TOCSY experiment with a mixing time of 75 ms was performed. All data were processed using NMRPipe[76] and analyzed using Sparky[77].

Assay [4] deals with T1, NBD-labeled F-actin (Oryctolagus cuniculus, UniProt P68135).
T1 construct: NBD-conjugated actin from α-skeletal muscle was bought from Hypermol; purchased Hypermol (Bielefeld, Germany); host or cells: α-skeletal muscle (tissue-derived (so in the source))
Description: F-actin binding assay (NBD fluorescence change). The following applies: NBD-labeled F-actin, GAB, 25 °C; values only in Supplementary Fig. 1b bar diagram.
Description: In order to gain insight into the affinity of the Tau/F-actin-interaction, the change in fluorescence of 7-chloro-4-nitrobenz-2-oxa-1,3-diazole (NBD)-labeled F-actin upon addition of Tau was followed[31]. 0.2 μM of NBD-labeled and phalloidin-stabilized F-actin were mixed with increasing amounts of Tau (Fig. 1d and Supplementary Fig. 1).
NBD-conjugated actin from α-skeletal muscle was bought from Hypermol (Bielefeld, Germany). In this experiment, 7-chloro-4-nitrobenz-2-oxa-1,3-diazole (NBD)-labeled G-actin was polymerized starting from 0.4 mg ml^−1 of the conjugated actin supplemented with 10-fold excess of phalloidin (catalog no. P2141, Sigma-Aldrich) to provide stable filaments. […] The change of fluorescence intensity from NBD was followed in a Cary Eclipse fluorescence spectrophotometer (Agilent Technologies, Inc.). […] As reported by Hertzog, M. et al.[31] the normalized decrease in fluorescence (equation 1) was analyzed and fitted by using equation 2.1 E=F-F0/Fmax-F0 2 E=1/2C+1/2Z-1/2C+Z^2-4Z with Z=[partner]/[F-actin]andC=1+Kd/[F-actin]
Affinity of Tau and Tau fragments for binding to NBD-labeled F-actin. (a) Change of NBD fluorescence upon addition of increasing concentrations of Tau and Tau fragments. […]
(b) Bar diagram showing Kd values, which were determined based on the quenching effect of Tau/Tau fragments on the fluorescent properties of NBD-labeled F-actin. […]

For assay [5], the system named is F-actin. Description: Saturation transfer difference (STD) NMR with F-actin. The following applies: compared with wild-type Tau(254–290). In kind it is binding, human. The procedure: We therefore prepared a mutant version of Tau(254–290), in which L266 was replaced by a glutamate, i.e., Tau(254–290)-L266E. We then used saturation transfer difference (STD)[49] experiments to probe the influence of the mutation on binding of Tau(254–290) to F-actin.
as §1

“Also recorded” adds a separate entry of the source.

Regarding “MARK2-phosphorylated Tau: full-length Tau phosphorylated by MARK2 at S262, S293, S305, S324, S356, and S416”, the “F-actin-induced NMR signal attenuation near phosphorylation sites / F-actin binding in words” value in assay [1] is reported as “little attenuation of NMR signals in vicinity of the phosphorylation sites; also recorded: attenuates its binding to F-actin”. The “bundling of F-actin” value in assay [2] is listed as “failed in bundling actin filaments”.
Consider “Tau(254–290)-L266E: mutant version of Tau(254–290), in which L266 was replaced by a glutamate (Ac-KNVKSKIGSTENEKHQPGGGKVQIINKKLDLSNVQSK-NH2)”, for which the “transfer NOE cross-peaks in presence of F-actin” value in assay [3] is listed as “no additional cross-peaks were observed”. Further, in assay [4], the “affinity for F-actin relative to parent (in words)” value is “decrease in affinity”. The “bundling of F-actin” value in assay [2] is on record as “less efficient in promoting F-actin bundling”. The “STD signal relative to wild-type peptide” value in assay [5] was “decreased STD signal”.
